Results on four molecules are retold here after article PMC8864717 (Chemical Science, 2021).

What is called pEC50 is the negative decadic logarithm of the EC50, by convention in mol/L.

The conditions of data set [1]: cited from earlier work.
Data set [2] concerns SARS-CoV-2. Format: in vivo, golden Syrian hamster.
In data set [3] the test system is SARS-CoV-2. Kind of data set: Viral load reduction assay, SARS-CoV-2 in Vero E6 cells. Type of data set: cell-based. As to conditions: Vero E6, up to 2000 μM.
The subject of data set [4] is SARS-CoV-2. Type of data set: cell-based. As to conditions: CBS 1000 μM, NAC 1000 μM, CBS 1000 μM + 3NAC 3000 μM, non-treated 64.5%.
The target in the next data set is SARS-CoV-2 PL^pro (Severe acute respiratory syndrome coronavirus 2, UniProt P0DTD1). Type of data set: biochemical. As to conditions: at comparable concentrations.
Another data set deals with SARS-CoV-2 M^pro (Severe acute respiratory syndrome coronavirus 2, UniProt P0DTD1). Type of data set: biochemical. The settings on record: at comparable concentrations.
Data set [5] can be described thus: Ex vivo everted gut sac model. Type of data set: in vitro ADME. As to conditions: rat duodenum, within 60 min, CBS 200 μM, pH 7.4.
Data set [6] in a line: Blood bismuth concentration after oral administration in mice. Type of data set: in vivo. The settings on record: Balb/c mice, oral CBS 150 mg kg^-1 (NAC 180 or 610 mg kg^-1).
A further data set addresses ACE2 (Homo sapiens, UniProt Q9BYF1). As to the kind of experiment: ACE2 activity inhibition assay. Format: biochemical.
The conditions of data set [7]: pH 9.2, with NAC.
The test system of a further data set is Caco-2 cell monolayer. The settings on record: CBS 150 μM, without or with 10NAC 1.5 mM.
For data set [8] the following is noted: SD rats.
Data set [9] deals with SARS-CoV-2. As to conditions: read-out: EC50, SARS-CoV-2; cited from earlier work.
For data set [10] the following is noted: cited from earlier work. The source holds these as a separate data set.
The mark [11] stands for this setting: single oral dose CBS 150 mg/kg, NAC 610 mg/kg, n = 5.

pEC50: −log10 of the molar value. Read-outs that look alike come from different tables or passages of the source.

ACE2, sequence (Q9BYF1 18-805): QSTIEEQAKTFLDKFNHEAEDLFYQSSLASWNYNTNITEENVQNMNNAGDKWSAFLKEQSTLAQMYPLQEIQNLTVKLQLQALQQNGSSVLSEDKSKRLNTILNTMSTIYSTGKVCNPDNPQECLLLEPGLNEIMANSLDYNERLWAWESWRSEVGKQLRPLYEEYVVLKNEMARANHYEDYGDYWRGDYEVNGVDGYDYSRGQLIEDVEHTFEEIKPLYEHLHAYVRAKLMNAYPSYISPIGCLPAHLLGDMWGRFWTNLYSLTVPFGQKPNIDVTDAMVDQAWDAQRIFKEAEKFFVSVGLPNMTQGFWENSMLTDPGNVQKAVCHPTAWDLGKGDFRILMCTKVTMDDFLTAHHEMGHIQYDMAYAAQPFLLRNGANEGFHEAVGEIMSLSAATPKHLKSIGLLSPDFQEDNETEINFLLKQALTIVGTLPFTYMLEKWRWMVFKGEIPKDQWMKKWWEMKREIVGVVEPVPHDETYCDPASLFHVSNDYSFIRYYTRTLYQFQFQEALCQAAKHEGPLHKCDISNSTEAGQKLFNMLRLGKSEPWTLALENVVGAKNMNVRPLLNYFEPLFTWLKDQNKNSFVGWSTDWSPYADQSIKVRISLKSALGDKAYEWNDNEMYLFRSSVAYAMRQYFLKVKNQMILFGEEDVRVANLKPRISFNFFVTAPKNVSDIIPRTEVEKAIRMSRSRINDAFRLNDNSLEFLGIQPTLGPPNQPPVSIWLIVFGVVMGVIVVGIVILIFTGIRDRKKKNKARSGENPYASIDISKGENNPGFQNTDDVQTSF

On to `O=[N+]([O-])[O-].O=[N+]([O-])[O-].O=[N+]([O-])[O-].O=[N+]([O-])[O-].[Bi+3].[Bi+3].[Bi+3].[Bi+3].[Bi+3].[O-2].[OH-].[OH-].[OH-].[OH-].[OH-].[OH-].[OH-].[OH-].[OH-]` [BSN, bismuth subnitrate], for which the “absorption of bismuth in the rat small intestine” value in data set [1] is on record as “lower than 1%”.

As to `CC(=O)N[C@@H](CS)C(=O)O` [NAC, N-acetyl-L-cysteine], in the data set with SARS-CoV-2 [2] (hamster, in vivo, po), the “SARS-CoV-2-NP antigen signal in alveolar tissue of hamster lungs” value is 85.67(±11.59) NP^+ cells per view and the “lung pathology” value is “partially relieve lung pathology”. The “lung viral load versus vehicle group” value with SARS-CoV-2 [2] (oral, CBS 300 mg kg^-1 or NAC 370 mg kg^-1, day -2 to 1, […]) is “no statistically significant difference”. Besides, in the data set on SARS-CoV-2 [3], the “anti-SARS-CoV-2 activity of NAC alone, virus copies in supernatant” value is “negligible anti-SARS-CoV-2 activity”. In addition, the “viral NP antigen in infected Vero E6 cells” value in the data set on SARS-CoV-2 [4] is 59.75%. At SARS-CoV-2 PL^pro, the “inhibitory activity on SARS-CoV-2 PL^pro” value was “negligible inhibitory activity”. Besides, the “inhibitory activity on SARS-CoV-2 M^pro” value against SARS-CoV-2 M^pro was “negligible inhibitory activity”.

As for `CNC(=C[N+](=O)[O-])NCCSCc1ccc(CN(C)C)o1.O=C([O-])CC(O)(CC(=O)[O-])C(=O)[O-].[Bi+3]` [RBC, ranitidine bismuth citrate], the “cumulative permeated bismuth, PAMPA” value runs as follows: (iso-pH 1.2, in the presence of 10 mol eq. NAC) 19.77 ng cm^−2; (iso-pH 1.2, without NAC) 15.24 ng cm^−2.

As for colloidal bismuth subcitrate [CBS], the “SARS-CoV-2-NP antigen signal in alveolar tissue of hamster lungs” value in the data set on SARS-CoV-2 [2] (hamster, in vivo, po) is recorded as 68.00(±6.08) NP^+ cells per view. The “adverse clinical signs and symptoms of infected hamsters” value in the data set with SARS-CoV-2 [2] (oral treatment, end of experimental period) is given as “mildly mitigated”. In addition, the “viral NP antigen in infected Vero E6 cells” value with SARS-CoV-2 [4] was determined as 37.25%. Moreover, the “cumulative bismuth permeated, everted sac model” value in data set [5] is reported as 14.68(±4.12) ng cm^−2. Further, the blood bismuth concentration in [6] (0.5 hour) is 225.75(±86.05) μg L^−1; in data set [6] (1 hour) it was 87.27(±21.46) μg L^−1. Moreover, the “inhibition of ACE2 activity” value against ACE2 is given as “barely displayed anti-ACE2 potency”. The “hydrolysis of CBS at pH 9.2 in the presence of NAC” value in data set [7] is “prevent hydrolysis”. Also, the “cumulative permeated bismuth, PAMPA” value (iso-pH 1.2, without NAC) came to 16.95 ng cm^−2. For the same molecule, the “cellular accumulation of bismuth in Caco-2 monolayer” value in the data set with Caco-2 cell monolayer is listed as 0.33(±0.02) %. In the data set on Caco-2 cell monolayer (pH 7.4), the “apparent permeability coefficient (Papp) through Caco-2 monolayer” value is given as 1.73(±0.02) × 10^−7 cm s^−1. The “bismuth accumulation in the kidney” value in data set [8] (24 hour after oral dose) is 6839.76(±1652.30) ng per tissue. The “bismuth accumulation in the lung” value in data set [8] (24 hour after oral dose) is 552.15(±104.97) ng per tissue. For the same molecule, the “first peak value of blood bismuth level” value in [8] (oral CBS 150 mg kg^-1, at around 0.5 h) was 277.69 µg/L. The AUC0→12 h in [8] (setting [11]) is listed as 1316(±474.00) h μg L^−1. The “Cmax (blood bismuth)” value in data set [8] (setting [11]) is listed as 447.06(±132.39) μg L^−1. Also, in the data set with SARS-CoV-2 [9], the negative-log EC50 (pEC50) was 5.34. Moreover, the results for the solubility in water entry in data set [10] (pH 3) and in [10] (pH 7) were “about 1 mg mL^−1” and over 70 mg/mL, respectively. Also, the “absorption of bismuth in the rat small intestine” value in data set [1] is recorded as “lower than 1%”.
